These results are taken from paper PMC6894747 (PLoS Pathogens, 2019).

Read-outs that look alike come from different tables or passages of the source. Positions of bridges follow the written chain, without caps; N, C: chain ends. Residues, ends and D or L forms follow the SMILES beside them.

Series [1] concerns HIV-1 Bal (subtype B, R5). The class given is cell-based. Particulars: Bal (subtype B, R5).
Protocol: (§2) Briefly, 1×10^5/mL MT-2 or M7 cells were infected with different HIV-1 viruses at 100 TCID50 (50% tissue culture infective dose) in the presence or absence of peptides at graded concentrations overnight. Then the culture supernatants were replaced with equal volume of fresh medium. On the fourth day post-infection, supernatants were collected and mixed with equal volume of 5% Triton X-100. […] The IC50 values were calculated with CalcuSyn software [35–36], and inhibition curves of best fit were generated with GraphPad Prism.
Series [2] deals with HIV-1 IIIB (subtype B, X4). The format is cell-based. Particulars: IIIB (subtype B, X4).
Protocol: as §2
The target in a further series is rhesus monkey IgG. Put plainly: Isothermal titration calorimetry (ITC). The class given is binding. Particulars: 300 μM peptide injected into 30 μM rhesus monkey IgG, PBS, 25 °C. The protocol: ITC assay was performed with an ITC microcalorimeter instrument (NANO ITC, TA Instruments, Lindon, UT) as described previously. In brief, 300 μM peptides were dissolved in PBS and injected into the chamber containing 30 μM of rhesus monkey IgG. The experiments were carried out at 25 °C. The time between injections was 300 s, and the stirring speed was 300 rpm. The heats of dilution were determined in control experiments by injecting peptides into PBS and then subtracting from the heats produced in the corresponding peptide-IgG binding experiments. Data acquisition and analysis were performed using the Origin software, and the best fitting curves were generated with GraphPad Prism.
Background: In ITC the heat of successive injections is recorded.

The next series relates to M7 cells. Put plainly: Cytotoxicity assay (CCK-8). To be noted: up to 5 μM, 48 h, triplicate. The format is cell-based. The protocol: (§1) The potential cytotoxicity of peptides on MT-2 and M7 cells was measured by using the Cell Counting Kit-8 according to the manufacturer’s instructions (CCK-8, Dojindo Laboratories, Kumamoto, Japan). Briefly, 100 μL of a peptide at graded concentrations were added to equal volumes of cells (10^4 cells/well) in a 96-well plate. Cell viability was evaluated using the CCK-8 kit after incubation at 37 °C for 2 days. Incubation with CCK-8 reagents at 37 °C for another 4 h, the absorbance at 450 nm was measured with an ELISA reader, and the percentage of cytotoxicity was calculated.

Another series relates to MT-2 cells. Put plainly: Cytotoxicity assay (CCK-8). The format is cell-based. To be noted: up to 5 μM, 48 h, CCK-8; triplicate. The protocol:
as §1

For series [3], the system named is H9/HIV-1IIIB target cells with PBMC effector cells. Put plainly: ADCC assay, 10E8-mediated lysis. The format is cell-based, human. Particulars: peptide up to 20 μM added to 10E8. As for the experimental part:
H9/HIV-1IIIB cells expressing HIV-1 Env (2.5 × 10^4 cells) as the target cells were seeded into a 96-well plate (25 μL/well), and the mixture of a serially diluted inhibitors and 10E8 (1.5 μg/mL) was added to the culture plate. PBMC (AllCells) as effector cells (2.5 × 10^4 cells in 25 μL) were cocultured with the mixture-treated target cells at 37 °C overnight, and the […] activity was measured using the CytoTox-ONE Homogeneous Membrane Integrity Assay (Promega).

The next series deals with HIV-1 IIIB. Put plainly: Inhibitors alone or in combination against HIV-1 IIIB. The format is cell-based. As for the experimental part:
The samples were serially diluted and tested for their inhibitory activity on HIV-1 infection as described above. The data were analyzed for synergistic effect by calculating the combination index (CI) with the CalcuSyn software. CI values of <0.95 and >1.05 indicate synergy and antagonism, respectively. CI <0.1, 0.1–0.3, 0.3–0.7, 0.7–0.85, and 0.85–0.90 indicate very strong synergism, strong synergism, synergism, moderate synergism, and slight synergism, respectively. Fold of dose reduction was calculated with the ratio of concentrations of inhibitor testing alone and in combination.

On the set-up of series [4]: method as in PMID 16174446. To be noted: reported value; cited from earlier work.

On to `CC[C@H](C)[C@H](NC(=O)[C@H](CC(C)C)NC(=O)[C@H](CCC(=O)O)NC(=O)[C@H](CCC(=O)O)NC(=O)[C@@H](NC(=O)[C@H](CCCCN)NC(=O)[C@H](CCCCN)NC(=O)[C@@H](NC(=O)[C@H](Cc1ccc(O)cc1)NC(=O)[C@H](CCC(=O)O)NC(=O)[C@H](CCC(=O)O)NC(=O)[C@@H](NC(=O)[C@H](CCCCN)NC(=O)[C@H](CCCCN)NC(=O)[C@H](CC(=O)O)NC(=O)[C@H](Cc1c[nH]c2ccccc12)NC(=O)[C@H](CCC(=O)O)NC(=O)[C@H](CCC(=O)O)NC(=O)[C@H](Cc1c[nH]c2ccccc12)NC(=O)[C@@H](NC(=O)[C@@H](N)CCSC)[C@@H](C)O)[C@@H](C)CC)[C@@H](C)O)[C@@H](C)CC)C(=O)N[C@@H](CCCCN)C(=O)N[C@@H](CCCCN)C(=O)N[C@@H](CO)C(=O)N[C@@H](CC(=O)O)C(=O)N[C@H]1CSSC[C@@H](C(=O)N[C@H](C(=O)O)[C@@H](C)O)NC(=O)[C@H](Cc2c[nH]c3ccccc23)NC(=O)[C@H](C(C)C)NC(=O)[C@H](CC(C)C)NC(=O)[C@H](CCC(=O)O)NC(=O)CNC(=O)[C@H](CC(C)C)NC(=O)[C@H](Cc2c[nH]cn2)NC(=O)[C@H](Cc2c[nH]c3ccccc23)NC(=O)[C@H](C)NC1=O` [CP24-IBP] (H-MTWEEWDKKIEEYTKKIEELIKKSDCAWHLGELVWCT-OH; disulfide 26-36), for which the IC50 (in general, the concentration that inhibits the measured activity by half) in series [1] amounted to 11 nM; in series [2] it was 41.3 nM.

Consider `CC(C)C[C@@H]1NC(=O)[C@H](Cc2c[nH]cn2)NC(=O)[C@H](Cc2c[nH]c3ccccc23)NC(=O)[C@H](C)NC(=O)[C@@H](NC(=O)[C@@H](N)CC(=O)O)CSSC[C@@H](C(=O)N[C@H](C(=O)O)[C@@H](C)O)NC(=O)[C@H](Cc2c[nH]c3ccccc23)NC(=O)[C@H](C(C)C)NC(=O)[C@H](CC(C)C)NC(=O)[C@H](CCC(=O)O)NC(=O)CNC1=O` [IBP], for which, at rhesus monkey IgG, the Kd (in general, the free concentration of one partner at which half of the binding sites on the other are occupied at equilibrium, for simple one-to-one binding) stood at 2440 nM. Further, the “in vitro cytotoxicity to M7 cells” value in the series with M7 cells is “no in vitro cytotoxicity”. For the same compound, in the series on MT-2 cells, the “in vitro cytotoxicity to MT-2 cells” value is recorded as “no in vitro cytotoxicity”. The “effect on 10E8-mediated lytic activity” value in series [3] is “remained about the same”.

With `CC1(C)CC(NC(=O)C(=O)Nc2ccc(Cl)cc2)CC(C)(C)N1` [NBD556], the IC50 in the series with HIV-1 IIIB (experiment N6 / NBD556, HIV-1 IIIB, read-out: IC50 Alone) amounted to 28.1 µM; with HIV-1 IIIB (mixture N6 / NBD556, HIV-1 IIIB, read-out: IC50 In mixture), 4.61 µM. Further, the Dose reduction in the series on HIV-1 IIIB (mixture N6 / NBD556, HIV-1 IIIB) turned out to be 6.1 fold.

Consider enfuvirtide, for which, in series [4], the “reported t1/2” value is recorded as 3 h.
